For assay [1], the target named is Voltage-gated inwardly rectifying potassium channel KCNH2 (Homo sapiens, UniProt Q12809). The settings on record: Potency.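 Note: confirmatory quantitative high-throughput screen measuring inhibition of hERG channel activity.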
Another assay addresses CAAX prenyl protease 2 (Homo sapiens, UniProt Q9Y256). The experiment in a line: inhibition of Ras-converting CAAX protease Rce1 – biochemical, yeast membranes, quenched-peptide fluorescence, cherry-pick, dose response (AID 588849).
A short description of assay [2]: viability loss in HEK293 cells – cell-based, plate reader, cherry-picked samples, cytotoxicity control, dose response (AID 743446). The class given is functional.
A short description of assay [3]: toxicity toward HepG2 liver cells – cell-based, plate reader, cherry-pick, antagonist series, cytotoxicity control, dose response (AID 743416). Format: functional.
Assay [4] in a line: cells. Format: functional, cell-based.
In assay [5] the test system is BJ. In words: BJ-TERT fibroblast viability loss – cell-based, RAS-independent, luminescence, dose response (AID 1933). The following applies: Homo sapiens. The class given is functional.
Assay [6] in a line: A549 cell cytotoxicity, dose response, cytotoxicity control, plate reader, cherry-pick, antagonist series (AID 743412). The class given is functional, cell-based.
A short description of assay [7]: non-specific 3'UTR reporter inhibition in Clone20-Shn3RL – cell-based, Renilla luciferase, cherry-picked, counter-screen for Shn3 inhibitor project, dose response (AID 624133). The class given is functional. (Counterscreens check selectivity or assay interference.)
The subject of the next assay is INS1. In words: INS-1E survival protection against cytokine death – cell-based, luminescence, retest, dose response (AID 449756).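 Note: cell death triggered by IL-1 beta plus TNF-alpha plus IFN-gamma mixture; protective hits raise ATP signal compared with cytokine alone wells.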 Format: functional. The settings on record: Rattus norvegicus.
Assay [8] deals with T1, Kappa-type opioid receptor (Homo sapiens, UniProt P41145). Format: functional.
T1 sequence (P41145 whole entry): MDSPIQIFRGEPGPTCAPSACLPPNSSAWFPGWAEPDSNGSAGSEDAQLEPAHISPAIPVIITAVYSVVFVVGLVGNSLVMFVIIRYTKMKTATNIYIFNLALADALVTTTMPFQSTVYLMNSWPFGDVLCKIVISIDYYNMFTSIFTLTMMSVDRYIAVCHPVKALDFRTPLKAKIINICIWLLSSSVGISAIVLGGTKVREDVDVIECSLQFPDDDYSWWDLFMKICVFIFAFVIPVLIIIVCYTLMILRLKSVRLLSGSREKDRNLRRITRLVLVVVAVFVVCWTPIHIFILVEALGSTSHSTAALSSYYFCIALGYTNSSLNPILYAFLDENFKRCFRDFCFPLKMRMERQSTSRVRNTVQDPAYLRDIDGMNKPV
Assay [9] has as its target T2, Beta-galactosidase (Escherichia coli, UniProt Q8VNN2). Format: functional.
Assay [10] can be described thus: cells. The class given is functional.
The test system of assay [11] is BJ. In words: BJ-TERT-LT-ST fibroblast viability loss – cell-based, RAS-independent, luminescence, dose response (AID 1935).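 Note: BJ fibroblasts immortalized with TERT plus LT and ST oncogenes.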 The class given is functional. The following applies: Homo sapiens.
Assay [12] is described as follows: blockade of melanocortin 4 receptor signaling – cell-based, plate reader, cherry pick, counter-screen for LGR2 antagonist project, dose response (AID 743444).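 Note: transfected HEK 293 cells stimulated with alpha-MSH peptide; potency of inhibitors of the alpha-MSH evoked signal.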 Format: functional.
The target in assay [13] is T2, Beta-galactosidase. In words: PubChem AID 485352. The class given is functional.
The nature of assay [14]: reduction of Shn3 3'UTR-driven luciferase in osteoblasts – cell-based, Clone20 osteoblasts, firefly luciferase, cherry-picked, dose response (AID 624132).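 Note: firefly luciferase luminescence from reporter carrying the Shn3 3'UTR in osteoblasts.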 The class given is functional.
In another assay the target is T3, Protein skinhead-1 (Caenorhabditis elegans, UniProt P34707).
T3 sequence (P34707 whole entry): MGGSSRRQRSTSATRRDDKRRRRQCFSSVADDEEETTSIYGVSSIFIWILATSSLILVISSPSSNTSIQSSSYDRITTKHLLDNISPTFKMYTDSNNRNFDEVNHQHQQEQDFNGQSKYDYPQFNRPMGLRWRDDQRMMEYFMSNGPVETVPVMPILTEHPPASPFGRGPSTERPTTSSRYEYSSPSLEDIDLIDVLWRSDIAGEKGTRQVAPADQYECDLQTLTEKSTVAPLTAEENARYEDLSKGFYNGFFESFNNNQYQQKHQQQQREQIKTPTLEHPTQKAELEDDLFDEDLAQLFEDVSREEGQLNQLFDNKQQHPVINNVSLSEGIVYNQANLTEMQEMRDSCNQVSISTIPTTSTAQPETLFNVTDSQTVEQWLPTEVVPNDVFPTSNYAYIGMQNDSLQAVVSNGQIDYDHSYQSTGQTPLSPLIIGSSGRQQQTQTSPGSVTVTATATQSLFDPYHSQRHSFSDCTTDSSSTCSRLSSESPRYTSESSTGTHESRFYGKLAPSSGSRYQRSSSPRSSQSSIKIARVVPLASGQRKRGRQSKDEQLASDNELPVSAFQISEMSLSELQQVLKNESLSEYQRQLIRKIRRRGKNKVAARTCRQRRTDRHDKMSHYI
The class given is functional.

Assay [15] deals with BJ. In words: cells. Format: functional, cell-based. The settings on record: Homo sapiens.
The nature of assay [16]: blockers of bursicon-stimulated LGR2 cAMP reporter – cell-based, HEK293, CRE-luciferase reporter, cherry pick, set 2, dose response (AID 743343).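 Note: transfected cells were stimulated with diluted bursicon conditioned medium after compound addition.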 The class given is functional. On the technique in general: A reporter such as luciferase makes a cellular process visible.
Assay [17] is described as follows: Vero E6 cell cytotoxicity, dose response, cytotoxicity control for non-replicating M. tuberculosis project, secondary assay (AID 492998). Format: functional, VeroE6. The following applies: Vero C1008.
A short description of assay [18]: cells. Format: functional, cell-based. The source holds these as a separate data set.
Assay [19] is described as follows: HepG2 cell cytotoxicity, dose response, cytotoxicity control for non-replicating M. tuberculosis project (AID 489018). Format: functional. The following applies: Mycobacterium tuberculosis.
Assay [20] can be described thus: DRD fibroblast viability loss – cell-based, non-viral oncogenic, luminescence, dose response (AID 1934). Format: functional. The following applies: Homo sapiens.
The nature of assay [21]: loss of viability in HepG2 cells – cell-based, CellTiter-Glo, cherry-picked, cytotoxicity control for Shn3 inhibitor project, dose response (AID 624134). Format: functional.
The target of assay [22] is T1, Kappa-type opioid receptor. Format: functional. The source holds these as a separate data set.
For assay [23], the target named is Type-1 angiotensin II receptor (Homo sapiens, UniProt P30556). In words: antagonism of angiotensin II type 1 receptor – cell-based, uHTS hits, selectivity assay for APJ receptor antagonist project, dose response (AID 463214).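 Note: antagonist potency against angiotensin II stimulated AT1 response.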 Format: functional.
Sequence of Type-1 angiotensin II receptor (P30556 whole entry): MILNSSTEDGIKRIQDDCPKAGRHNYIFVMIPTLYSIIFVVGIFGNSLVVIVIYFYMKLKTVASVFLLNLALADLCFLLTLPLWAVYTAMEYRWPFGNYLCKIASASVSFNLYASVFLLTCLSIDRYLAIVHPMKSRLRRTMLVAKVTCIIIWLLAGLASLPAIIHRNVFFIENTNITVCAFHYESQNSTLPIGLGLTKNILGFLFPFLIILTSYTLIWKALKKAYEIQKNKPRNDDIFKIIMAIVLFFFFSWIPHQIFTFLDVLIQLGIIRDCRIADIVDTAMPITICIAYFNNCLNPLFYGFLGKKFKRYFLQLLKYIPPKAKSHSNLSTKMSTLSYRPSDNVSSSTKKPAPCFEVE
Assay [24] can be described thus: THP-1 cell cytotoxicity, dose response, cytotoxicity control for non-replicating M. tuberculosis project (AID 489025). The class given is functional.
Assay [25] concerns Vero. The experiment in a line: cells. The class given is functional, cell-based. The following applies: Chlorocebus sabaeus.
Assay [26] relates to Vero. In words: cells. Format: functional. The following applies: Chlorocebus sabaeus.
The next assay concerns the target T4, Streptokinase A (Streptococcus pyogenes serotype M1, UniProt P10520).
T4 sequence (P10520 whole entry): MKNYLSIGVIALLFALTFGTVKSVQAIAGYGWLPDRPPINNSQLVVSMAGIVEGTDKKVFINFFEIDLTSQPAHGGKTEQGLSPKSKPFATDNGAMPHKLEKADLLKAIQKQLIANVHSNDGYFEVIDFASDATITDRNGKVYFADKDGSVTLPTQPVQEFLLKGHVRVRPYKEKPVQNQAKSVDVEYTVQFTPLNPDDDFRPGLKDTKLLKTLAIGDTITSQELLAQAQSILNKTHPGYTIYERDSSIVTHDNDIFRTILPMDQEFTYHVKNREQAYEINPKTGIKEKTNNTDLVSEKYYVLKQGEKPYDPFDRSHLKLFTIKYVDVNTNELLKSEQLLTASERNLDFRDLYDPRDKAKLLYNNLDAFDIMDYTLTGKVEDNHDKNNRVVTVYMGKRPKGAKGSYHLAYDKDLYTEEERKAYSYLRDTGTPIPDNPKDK
The experiment in a line: viability-normalized secreted streptokinase activity reduction – plasminogen activation absorbance, OD405, dose response (AID 1914).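 Note: secreted streptokinase activity via plasminogen activation per viability signal from cell pellet.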 The class given is functional, Streptococcus pyogenes M1 GAS.

In assay [27] the test system is Streptococcus sp. 'group A'. The experiment in a line: Streptococcus pyogenes SK(-)GAS viability under kanamycin – luminescence, BacTiterGlo, confirmation, counter-screen for streptokinase expression inhibitor project, dose response (AID 1900). The class given is functional, organism-based.
In another assay the test system is Streptococcus. In words: GAS UMAA2166 growth inhibition – luminescence, BacTiterGlo, counter-screen for streptokinase expression inhibitor project, dose response (AID 1915).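 Note: potency for reduction of bacterial viability or growth.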 The class given is functional, organism-based.
For the next assay, the system named is Escherichia coli. In words: microbe, parasite or virus in culture.
Another assay deals with T5, Caspase-6 (Homo sapiens, UniProt P55212).
T5 sequence (P55212 whole entry): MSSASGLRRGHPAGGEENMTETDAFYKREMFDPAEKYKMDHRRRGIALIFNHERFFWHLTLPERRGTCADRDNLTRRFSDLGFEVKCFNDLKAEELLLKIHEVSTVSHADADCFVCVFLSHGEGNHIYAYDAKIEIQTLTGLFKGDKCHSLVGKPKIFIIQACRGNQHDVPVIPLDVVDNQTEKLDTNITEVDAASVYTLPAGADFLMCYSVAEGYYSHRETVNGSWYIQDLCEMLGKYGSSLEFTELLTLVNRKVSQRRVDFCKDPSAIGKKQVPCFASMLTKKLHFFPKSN
In words: inhibition of CASP6 peptide cleavage – biochemical, VEID-R110 fluorescence, cherry-pick, dose response (AID 720632).

Six compounds from ChEMBL document CHEMBL1201862, “PubChem BioAssay data set” (2004) can be followed below.

Active and inactive are the calls of the source. Bounds are passed on as bounds.

As usually defined, the AC50 is the concentration at which the activity in the assay is half-maximal. By EC50 is commonly meant the midpoint of the concentration-response curve. In general, IC50 refers to the concentration that gives 50% inhibition. As usually defined, the CC50 is the concentration that lowers cell viability or growth by half.

T2 sequence (Q8VNN2 whole entry): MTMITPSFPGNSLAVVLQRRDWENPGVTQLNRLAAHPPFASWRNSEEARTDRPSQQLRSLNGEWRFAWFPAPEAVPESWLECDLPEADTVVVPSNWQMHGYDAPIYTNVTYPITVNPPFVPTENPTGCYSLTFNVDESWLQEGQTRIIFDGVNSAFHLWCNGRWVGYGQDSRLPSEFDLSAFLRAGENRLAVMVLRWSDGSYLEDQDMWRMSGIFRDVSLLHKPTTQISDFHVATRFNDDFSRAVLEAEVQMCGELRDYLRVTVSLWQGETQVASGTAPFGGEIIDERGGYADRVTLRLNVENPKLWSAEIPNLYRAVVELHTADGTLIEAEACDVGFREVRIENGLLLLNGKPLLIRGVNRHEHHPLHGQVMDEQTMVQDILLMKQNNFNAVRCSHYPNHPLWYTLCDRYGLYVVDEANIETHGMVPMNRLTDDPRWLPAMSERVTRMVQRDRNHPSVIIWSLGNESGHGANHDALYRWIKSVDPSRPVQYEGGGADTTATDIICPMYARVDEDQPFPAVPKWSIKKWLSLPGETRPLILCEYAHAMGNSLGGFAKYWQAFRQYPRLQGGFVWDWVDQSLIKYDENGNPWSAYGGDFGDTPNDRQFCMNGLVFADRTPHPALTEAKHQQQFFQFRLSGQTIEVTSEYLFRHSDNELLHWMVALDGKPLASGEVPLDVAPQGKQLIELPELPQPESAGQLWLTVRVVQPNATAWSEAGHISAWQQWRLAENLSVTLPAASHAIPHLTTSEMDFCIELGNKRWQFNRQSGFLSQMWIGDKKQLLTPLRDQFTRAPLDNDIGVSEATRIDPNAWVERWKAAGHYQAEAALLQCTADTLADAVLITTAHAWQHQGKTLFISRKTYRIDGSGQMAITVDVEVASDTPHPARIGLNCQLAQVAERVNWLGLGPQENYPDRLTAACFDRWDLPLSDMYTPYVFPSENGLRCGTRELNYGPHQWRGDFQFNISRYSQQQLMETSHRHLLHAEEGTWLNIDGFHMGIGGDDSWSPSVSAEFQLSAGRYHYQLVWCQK
Sequence of CAAX prenyl protease 2 (Q9Y256 whole entry): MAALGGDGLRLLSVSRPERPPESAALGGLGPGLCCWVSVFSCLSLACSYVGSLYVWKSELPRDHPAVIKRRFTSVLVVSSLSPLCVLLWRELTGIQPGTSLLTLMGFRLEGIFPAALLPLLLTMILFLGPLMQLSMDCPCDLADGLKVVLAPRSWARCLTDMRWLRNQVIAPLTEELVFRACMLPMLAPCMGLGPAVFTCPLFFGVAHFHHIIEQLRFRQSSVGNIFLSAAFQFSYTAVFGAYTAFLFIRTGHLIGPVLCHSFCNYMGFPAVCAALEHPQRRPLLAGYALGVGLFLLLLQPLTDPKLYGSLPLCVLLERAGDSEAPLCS
Sequence of Voltage-gated inwardly rectifying potassium channel KCNH2 (Q12809 whole entry): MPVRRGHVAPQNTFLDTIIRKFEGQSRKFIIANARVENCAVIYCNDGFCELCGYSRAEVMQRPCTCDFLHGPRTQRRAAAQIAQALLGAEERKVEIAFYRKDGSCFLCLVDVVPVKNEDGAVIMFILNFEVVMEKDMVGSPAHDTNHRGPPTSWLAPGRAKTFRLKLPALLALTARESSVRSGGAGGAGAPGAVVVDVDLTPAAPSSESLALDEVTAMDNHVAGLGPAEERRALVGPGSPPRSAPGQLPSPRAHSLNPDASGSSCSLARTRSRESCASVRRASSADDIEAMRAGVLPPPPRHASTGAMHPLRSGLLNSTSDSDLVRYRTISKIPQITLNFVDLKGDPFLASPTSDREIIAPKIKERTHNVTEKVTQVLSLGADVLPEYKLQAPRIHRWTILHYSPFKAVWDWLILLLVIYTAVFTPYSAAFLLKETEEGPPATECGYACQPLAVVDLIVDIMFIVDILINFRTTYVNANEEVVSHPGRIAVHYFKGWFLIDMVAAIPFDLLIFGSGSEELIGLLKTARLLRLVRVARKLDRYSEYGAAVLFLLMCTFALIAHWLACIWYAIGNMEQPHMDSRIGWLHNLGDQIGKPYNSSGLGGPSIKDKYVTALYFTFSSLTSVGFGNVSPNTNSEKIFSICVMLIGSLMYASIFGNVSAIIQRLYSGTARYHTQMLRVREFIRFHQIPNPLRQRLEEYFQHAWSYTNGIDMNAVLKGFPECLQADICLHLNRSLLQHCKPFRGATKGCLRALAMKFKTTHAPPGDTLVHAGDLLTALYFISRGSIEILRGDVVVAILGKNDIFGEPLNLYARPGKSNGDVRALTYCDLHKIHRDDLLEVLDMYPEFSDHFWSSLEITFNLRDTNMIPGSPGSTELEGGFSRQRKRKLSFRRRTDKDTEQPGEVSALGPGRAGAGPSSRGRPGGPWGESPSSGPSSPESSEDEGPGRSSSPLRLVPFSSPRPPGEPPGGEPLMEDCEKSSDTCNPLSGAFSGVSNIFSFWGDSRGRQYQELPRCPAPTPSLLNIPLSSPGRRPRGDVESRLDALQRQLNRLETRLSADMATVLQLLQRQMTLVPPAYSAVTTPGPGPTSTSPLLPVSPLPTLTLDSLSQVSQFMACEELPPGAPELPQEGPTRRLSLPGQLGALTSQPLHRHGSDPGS

Take `N#CC(Cc1ccc(O)c(O)c1)C(=O)N1CCc2ccccc21` (configuration not stated): in [1], the AC50 was 15.8 µM (inconclusive).

Take `O=C(CCNS(=O)(=O)c1ccc2nc(O)oc2c1)NCc1ccccc1`: the AC50 on CAAX prenyl protease 2 was > 100 µM (inactive).

As for `O=C(Nc1nc2c(F)cc(F)cc2s1)c1ccccn1`, the concentration at half-maximal activity (AC50) in assay [2] was 10.8 µM (active); in assay [3], 2.09 µM (active); in [6] it was 2.66 µM (active); in assay [7] it was 2.21 µM (active); in the assay with INS1 it was 2.08 µM (active); in [12], 3.17 µM (active). Moreover, the AC50 in [14] is 6.69 µM (active); in assay [16], 4.05 µM (active); in assay [21], 15.2 µM (active). Also, the EC50 in “cells [4]” was 7.18 µM (active); in the assay with BJ [5], 11.2 µM (active); at Beta-galactosidase [9], > 31.5 µM (inactive); in the assay on BJ [11], > 150 µM (not active); at Beta-galactosidase [13], > 40 µM (inactive); in the assay with BJ [15], 78.2 µM (active). The EC50 in “cells [18]” was > 350 µM (not active); in [20], 1.63 µM (active). Further, the half-inhibitory concentration (IC50) in [8] is 8.25 µM (active); in “cells [10]” it was 420 nM (active); on Protein skinhead-1, > 100 µM (inactive); in assay [22], > 32 µM; in assay [23], 9.46 µM (active); with Vero [25] it was > 25 µM (active). Besides, the half-maximal cytotoxic concentration (CC50) was 2.12 µM (active) in [17], 4.95 µM (active) in [19], 2.14 µM (active) in assay [24] and 7.89 µM (active) with Vero [26].

As for `Cc1ccc(NNC(=O)c2cc(C(C)(C)C)nn2Cc2ccccc2)cc1`, the EC50 at Streptokinase A was 29.5 µM (active); on Beta-galactosidase [13], > 40 µM (inactive); in [27], 17.5 µM (active); in the assay on Streptococcus, > 150 µM (not active). Further, the IC50 in assay [23] was 3.81 µM (active).

With `Cc1csc(NC(=O)c2c(-c3c(Cl)cccc3Cl)noc2C)n1`, in the assay with Escherichia coli, the AC50 is 32.8 µM (active).

Take `O=C(N/N=C/c1cn(Cc2ccccc2)c2ccccc12)c1cc(O)cc(O)c1`: the AC50 was 12.6 µM (active) at CAAX prenyl protease 2 and 3.09 µM (active) on Caspase-6.
